From patent EP4813990A1, “COMPOUND FOR TREATING CANCER” (INNOLAKE BIOPHARMA (HANGZHOU) CO., LTD., priority 2023, dated 2025)
“And” between values parts separate entries of the source, which are not always exact repeats. Equal entries are not always repeated. Where two headings read alike, the source gives them in different places.

What was measured:
[1] = tested on: MC38 mouse colon cancer xenograft; experiment: MC38 mouse colon cancer xenograft model, single agent and combination with anti-CTLA-4 antibody; assay type: in vivo, C57BL/6 mice; settings: for Tumor Volume (mm^3) (Day 9): Day 9 after inoculation; for Tumor Volume (mm^3) (Day 9) / Tumor Volume (mm^3) / Tumor Volume (mm^3) (Day 15) / Tumor Weight / Tumor Volume (mm^3) (Day 12): Mean ± SEM; for Tumor Volume (mm^3) (Day 9) / Tumor Volume (mm^3) / Tumor Volume (mm^3) (Day 15) / Number of Animals with Tumor Volume > 250mm^3 / T/C (%) (Day 21) / Tumor Volume (mm^3) (Day 12) / TGI (%) (Day 21): n=8; for Tumor Volume (mm^3) (Day 15): Day 15 after inoculation; for Number of Animals with Tumor Volume > 250mm^3 / T/C (%) (Day 21) / TGI (%) (Day 21): Day 21; for Tumor Weight: end of experiment (D23); for Tumor Volume (mm^3) (Day 12): head prints Day 12; for TGI (%) (Day 21): tumor volume based; for TGITW (%): tumor weight based
Experimental: A total of 6 groups were set up in the experiment: vehicle control group, ILB-2109 low-dose and high-dose single-agent groups, Anti-CTLA-4 antibody single-agent group, and two dose groups of ILB-2109 and Anti-CTLA-4 in combination. Table 1. Experimental Administration Dosage and Grouping
Anti-CTLA-4 antibody was aseptically diluted to 0.5 mg/mL with DPBS and prepared immediately before administration.
ILB-2109 was formulated to 10 mg/mL with vehicle, 1% tween80 + 9% PEG400 + 90% ddwater. Specific preparation method: Prepare Vehicle 1 (10 mL Tween80, 90 mL PEG400, 900 mL ddwater), weigh 1120 mg of ILB-2109 and add into 112 mL of Vehicle 1, grind to basically uniform, then ultrasonicate for about 2-3 minutes to obtain a homogeneous suspension. An appropriate amount of the solution was diluted to 5 mg/mL with Vehicle 1 (1% Tween80 + 9% PEG400 + 90% ddwater) at a ratio of 1:1. The prepared solution was aliquoted into 5 mL EP tubes with 4 mL per tube and stored at 4°C. Prepared once a week.
48 female C57BL/6 mice were inoculated subaxillarily with 0.1 mL DPBS containing 2×10^5 MC38 cells. On the day of inoculation, mice were randomly divided into vehicle control group, ILB-2109 low-dose group and ILB-2109 high-dose group according to body weight, with 16 animals in each group. The day of inoculation was defined as D1. On D9 after inoculation, the average tumor volume of the vehicle control group reached about 64 mm^3. According to animal tumor volume and body weight, the original vehicle control group was divided into vehicle control group and Anti-CTLA-4 antibody single-agent group; the original ILB-2109 low-dose group was divided into ILB-2109 low-dose single-agent group and the combination group of low-dose ILB-2109 and anti-CTLA-4 antibody; the original ILB-2109 high-dose group was divided into ILB-2109 high-dose single-agent group and the combination group of high-dose ILB-2109 and Anti-CTLA-4 antibody. Administration was carried out for each group on the day of regrouping according to the set dosage.
Tumor volume was measured and body weight was weighed 3 times a week.
All animals were euthanized on D23 after inoculation, and tumor samples were collected and weighed.
Tumor volume was measured 3 times a week, and tumor growth inhibition TGITV (%) was calculated. The calculation formula of Tumor Volume (TV) is: TV = 1/2 × a × b^2 [formula] where a and b represent the major diameter and minor diameter of the tumor mass respectively. [formula]
Tumor weight of animals was measured during sample collection. The tumor growth inhibition was calculated according to the following formula: Tumor Growth Inhibition based on Tumor Weight TGITW(%) = (TWc−TWt)/TWc × 100% [formula] where TWt is the mean tumor weight of the treatment group, and TWc is the mean tumor weight of the vehicle control group.
All data were expressed as Mean ± SEM.
In this experiment, data on D21 after inoculation were used for statistical analysis by PRISM software. T test was used for comparison between two groups, and one-way ANOVA was used for comparison among three or more groups.

[2] = Liver microsome metabolism; assay type: in vitro ADME
From the text: The main biotransformation pathways of ILB-2109 in in vitro liver microsomes and hepatocytes include oxidation, dehydrogenation and glucuronidation (hepatocyte biotransformation pathway), and no human-specific metabolites were detected.

[3] = Cynomolgus monkey absorption test (pharmacokinetics); assay type: in vivo, cynomolgus monkeys; settings: for Cmax: read-out: peak concentration (Cmax)
Experimental: According to the Technical Guidelines for Non-clinical Pharmacokinetic Studies of Drugs and the results of in vitro metabolic species difference studies, liquid chromatography-tandem mass spectrometry (LC-MS/MS) was used in this pharmacokinetic study to fully verify the analytical method for the determination of ILB-2109 content in plasma (EDTA-K2 anticoagulation) of Sprague-Dawley rats and cynomolgus monkeys. The linear range of the method was 20.0~20000 nM. The precision, accuracy and other indicators of the method were confirmed to comply with the relevant regulations of biological sample detection.
This experiment studied the pharmacokinetic properties of ILB-2109 in female and male cynomolgus monkeys, including 1) 3 mg/kg single intravenous injection administration study; 2) 3, 15 and 60 mg/kg oral dose escalation study; 3) 15 mg/kg oral administration BID for 7 consecutive days.

[4] = Excretion of total radioactivity in bile duct cannulated (BDC) rats; assay type: in vivo
[5] = tested on: bone marrow polychromatic erythrocytes; experiment: Micronucleus test; assay type: in vivo; settings: SD rats, intragastric 500 ~ 2000 mg/kg
Experimental: SD rats were given intragastric administration of 500 ~ 2000 mg/kg ILB-2109.

[6] = ILB-2109 100 mg/kg gavage twice a day
[7] = ILB-2109 50 mg/kg gavage twice a day
[8] = both sexes, cynomolgus monkey, plasma, po, 3 mg/kg, cynomolgus monkeys, single oral 3 mg/kg
[9] = both sexes, cynomolgus monkey, plasma, po, 15 mg/kg, cynomolgus monkeys, oral 15 mg/kg twice a day for 7 days, Day 1
[10] = both sexes, cynomolgus monkey, plasma, po, 15 mg/kg, cynomolgus monkeys, oral 15 mg/kg twice a day for 7 days, Day 7
[11] = both sexes, cynomolgus monkey, plasma, po, 15 mg/kg, cynomolgus monkeys, single oral 15 mg/kg
[12] = both sexes, cynomolgus monkey, plasma, po, 60 mg/kg, cynomolgus monkeys, single oral 60 mg/kg
[13] = BDC rats, 0-72 hours after single oral administration

SMILES: Cc1cc(-c2c(-c3ccccc3)nc(N)n3nc(CO)nc23)cc(C(F)(F)F)n1 [ILB-2109]
- Tumor Volume (mm^3) (Day 9) ([1]; ILB-2109 50 mg/kg gavage twice a day, 50 mg/kg): 63±6 mm^3 and 63.65±6 mm^3
- Tumor Volume (mm^3) (Day 9) [1, 6]: 58±4 mm^3
- Tumor Volume (mm^3) ([1]; Day 11 after inoculation, ILB-2109 50 mg/kg gavage twice a day): 115±13 mm^3
- Tumor Volume (mm^3) ([1]; Day 11 after inoculation, ILB-2109 100 mg/kg gavage twice a day): 78±8 mm^3
- Tumor Volume (mm^3) ([1]; Day 13 after inoculation, ILB-2109 50 mg/kg gavage twice a day): 143±20 mm^3
- Tumor Volume (mm^3) ([1]; Day 13 after inoculation, ILB-2109 100 mg/kg gavage twice a day): 105±11 mm^3
- Tumor Volume (mm^3) (Day 15) [1, 7]: 225±34 mm^3
- Tumor Volume (mm^3) (Day 15) ([1]; ILB-2109 100 mg/kg gavage twice a day, 100 mg/kg): 257±18 mm^3 and 157±18 mm^3
- Tumor Volume (mm^3) ([1]; Day 17 after inoculation, ILB-2109 50 mg/kg gavage twice a day): 269±41 mm^3
- Tumor Volume (mm^3) ([1]; Day 17 after inoculation, ILB-2109 100 mg/kg gavage twice a day): 207±25 mm^3
- Number of Animals with Tumor Volume > 250mm^3 [1, 7]: 8/8
- T/C (%) (Day 21) [1, 7]: 70.61%
- Number of Animals with Tumor Volume > 250mm^3 [1, 6]: 5/8
- T/C (%) (Day 21) [1, 6]: 52.76%
- Tumor Volume (mm^3) ([1]; Day 21 after inoculation, ILB-2109 50 mg/kg gavage twice a day): 494±87 mm^3
- Tumor Volume (mm^3) ([1]; Day 21 after inoculation, ILB-2109 100 mg/kg gavage twice a day): 369±54 mm^3
- Tumor Weight [1, 7]: 1.7030 ± 0.1419 g
- Tumor Weight [1, 6]: 0.6318 ± 0.1355 g
- Tumor Volume (mm^3) (Day 12) [1, 7]: 494±87 mm^3
- Tumor Volume (mm^3) (Day 12) [1, 6]: 369±54 mm^3
- TGI (%) (Day 21) [1, 7]: 29.39%
- TGI (%) (Day 21) [1, 6]: 47.24%
- TGITW (%) [1, 7]: 31%
- TGITW (%) [1, 6]: 38%
- metabolism rate ([2]; Beagle dogs liver microsomes): slowly metabolized or non-metabolized
- metabolism rate ([2]; CD-1 mice liver microsomes): moderate rate
- metabolism rate ([2]; SD rats liver microsomes): moderate rate
- metabolism rate ([2]; cynomolgus monkeys liver microsomes): slowly metabolized or non-metabolized
- metabolism rate ([2]; human liver microsomes): slowly metabolized or non-metabolized
- AUC(0-t) ([3]; both sexes, cynomolgus monkey, plasma, iv, 3 mg/kg, female and male cynomolgus monkeys, single intravenous injection 3 mg/kg): 39.5 ± 5.27 µM·h
- AUC(0-t) [3, 8]: 35.2 ± 6.87 µM·h
- Cmax [3, 8]: 8.19 ± 1.81 µM
- AUC(0-t) [3, 9]: 172 ± 34.4 µM·h
- Cmax [3, 9]: 18.2 ± 4 µM
- AUC(0-t) [3, 10]: 268 ± 42.5 µM·h
- Cmax [3, 10]: 28.3 ± 4.78 µM
- AUC(0-t) [3, 11]: 192 ± 51.6 µM·h
- Cmax [3, 11]: 33.9 ± 9.66 µM
- AUC(0-t) [3, 12]: 571 ± 254 µM·h
- Cmax [3, 12]: 59.3 ± 33.3 µM
- bioavailability ([3]; both sexes, cynomolgus monkey, plasma, cynomolgus monkeys, 3 mg/kg oral dose group): 89.1%
- half-life ([3]; both sexes, cynomolgus monkey, plasma, female and male cynomolgus monkeys, single intravenous injection 3 mg/kg, read-out: elimination half-life (T1/2) (converted)): 4.33 ± 0.75 h
- clearance ([3]; both sexes, cynomolgus monkey, plasma, female and male cynomolgus monkeys, single intravenous injection 3 mg/kg, read-out: plasma clearance rate (CL)): 3.13 ± 0.361 mL/min/kg
- Vd ([3]; both sexes, cynomolgus monkey, plasma, female and male cynomolgus monkeys, single intravenous injection 3 mg/kg, read-out: steady-state apparent volume of distribution (Vd)): 0.867 ± 0.141 L/kg
- gender difference in systemic exposure (AUC0-last and Cmax) ([3]; cynomolgus monkeys, each oral dose): no significant gender difference
- accumulation of systemic exposure ([3]; cynomolgus monkeys, oral 15 mg/kg twice a day for 7 consecutive days): no obvious accumulation of systemic exposure
- peak time ([3]; cynomolgus monkeys, oral 15 mg/kg twice a day for 7 days): 3.00 ± 1.10 h
- dose proportionality of systemic exposure (AUC0-last) ([3]; cynomolgus monkeys, oral dose 3 to 60 mg/kg): increased basically proportionally to the dose
- peak time ([3]; cynomolgus monkeys, single oral 3 mg/kg): 1.33 ± 0.516 h
- peak time ([3]; cynomolgus monkeys, single oral 15 mg/kg): 2.00 ± 1.10 h
- peak time ([3]; cynomolgus monkeys, single oral 60 mg/kg): 4.00 ± 2.19 h
- average of total radioactivity recovery [4, 13]: 93.63%
- cage washing and cleaning fluid, share of the administered dose [4, 13]: 0.85%
- feces, share of the administered dose [4, 13]: 14.45%
- total biliary excretion, share of the administered dose [4, 13]: 66.17%
- urine, share of the administered dose [4, 13]: 12.16%
- oral absorption rate ([4]; from total radioactive excretion of bile and urine in BDC rats): at least 78.33%
- micronucleus induction [5]: no micronucleus-inducing effect
